In paper PMC5267425, “Identification of small molecule modulators of HIV-1 Tat and Rev protein accumulation” (Retrovirology, 2017):

System: cellular gene expression in HeLa rtTA HIV∆Mls cells

With Cc1cc(NCc2cccnc2)n2ncc(-c3ccc(Cl)cc3)c2n1 [Compound 791, 3-(4-chlorophenyl)-5-methyl-N-(3-pyridinylmethyl)pyrazolo[1,5-a]pyrimidin-7-amine] the “TRNP1 expression fold change” value was 0.822, the “TRNT1 expression fold change” value was 1.353 and the “TRUB2 expression fold change” value was 0.915. For the same compound, the “TSEN2 Mean fold change” value was 1.417, the “TSEN15 Mean fold change” value was 1.483 and the “TSPAN14 expression fold change” value was 1.164. For the same compound, the “TSR2 expression fold change” value was 0.870, the “TSSK6 Mean fold change” value was 1.615 and the “TTC9C expression fold change” value was 1.292. The “TTC13 Mean fold change” value was 1.539, the “TTC17 Mean fold change” value was 1.465 and the “TTLL4 expression fold change” value was 1.144. For the same compound, the “TTRAP Mean fold change” value was 1.772, the “TUBA1C expression fold change” value was 0.608 and the “TUBGCP4 expression fold change” value was 1.159. For the same compound, the “TXNDC11 expression fold change” value was 0.839, the “TXNRD2 expression fold change” value was 0.682 and the “UBAP2L expression fold change” value was 0.784. The “UBAP2 expression fold change” value was 0.809, the “UBE2CBP expression fold change” value was 1.206 and the “UBE2E3 expression fold change” value was 0.823. The “UBE2F expression fold change” value was 1.199, the “UBE3A expression fold change” value was 1.133 and the “UBL5 expression fold change” value was 0.749. For the same compound, the “UBXN2B Mean fold change” value was 1.412, the “UNC13D expression fold change” value was 0.656 and the “UPF1 expression fold change” value was 0.745. The “UPP1 Mean fold change” value was 1.696, the “USP3 expression fold change” value was 1.367 and the “USP13 expression fold change” value was 0.835. The “USP43 expression fold change” value was 0.526, the “USP45 expression fold change” value was 1.299 and the “VHL expression fold change” value was 1.356. The “VPS4B expression fold change” value was 0.923, the “VPS45 expression fold change” value was 1.169 and the “WARS Mean fold change” value was 4.515. The “WBSCR16 expression fold change” value was 0.745, the “WDFY1 expression fold change” value was 1.061 and the “WDR67 Mean fold change” value was 1.463. For the same compound, the “WDR73 expression fold change” value was 1.398, the “WDR85 Mean fold change” value was 1.430 and the “WDR86 Mean fold change” value was 1.956. The “WI2-3658N16.1 Mean fold change” value was 2.029, the “XBP1 Mean fold change” value was 1.642 and the “XPNPEP3 Mean fold change” value was 1.531. For the same compound, the “XPO5 expression fold change” value was 1.247, the “XPO7 expression fold change” value was 0.941 and the “XPOT Mean fold change” value was 2.053. For the same compound, the “XRCC6BP1 expression fold change” value was 1.139, the “YAP1 expression fold change” value was 1.104 and the “YARS Mean fold change” value was 1.734. For the same compound, the “ZBED1 expression fold change” value was 0.668, the “ZBED5 expression fold change” value was 1.276 and the “ZBTB8A expression fold change” value was 1.143. For the same compound, the “ZBTB26 expression fold change” value was 1.398, the “ZBTB34 expression fold change” value was 1.406 and the “ZC3H4 expression fold change” value was 0.785. For the same compound, the “ZC3H7A expression fold change” value was 0.841, the “ZC3H8 Mean fold change” value was 1.710 and the “ZC3H14 expression fold change” value was 1.133. For the same compound, the “ZCCHC4 expression fold change” value was 1.276, the “ZCCHC8 expression fold change” value was 1.219 and the “ZCCHC9 expression fold change” value was 1.340. For the same compound, the “ZFAND1 Mean fold change” value was 1.472, the “ZFP30 expression fold change” value was 1.219 and the “ZFP36L2 expression fold change” value was 1.274. The “ZFP64 expression fold change” value was 1.227, the “ZFP161 Mean fold change” value was 1.683 and the “ZFYVE20 expression fold change” value was 1.201. The “ZFYVE27 expression fold change” value was 1.318, the “ZHX2 Mean fold change” value was 1.409 and the “ZIC2 Mean fold change” value was 1.423. For the same compound, the “ZNF12 expression fold change” value was 1.245, the “ZNF25 Mean fold change” value was 1.879 and the “ZNF28 expression fold change” value was 1.179. The “ZNF91 expression fold change” value was 1.253, the “ZNF133 expression fold change” value was 1.224 and the “ZNF184 expression fold change” value was 1.308. For the same compound, the “ZNF193 expression fold change” value was 1.323, the “ZNF195 expression fold change” value was 1.289 and the “ZNF217 Mean fold change” value was 1.446. For the same compound, the “ZNF239 Mean fold change” value was 1.543, the “ZNF252 Mean fold change” value was 1.609 and the “ZNF295 Mean fold change” value was 1.482. The “ZNF319 expression fold change” value was 1.386, the “ZNF320 expression fold change” value was 1.362 and the “ZNF354A expression fold change” value was 1.350. The “ZNF354B Mean fold change” value was 1.466, the “ZNF410 Mean fold change” value was 1.435 and the “ZNF419 Mean fold change” value was 1.789. The “ZNF433 Mean fold change” value was 1.676, the “ZNF445 expression fold change” value was 1.297 and the “ZNF493 Mean fold change” value was 1.482. For the same compound, the “ZNF500 expression fold change” value was 1.175, the “ZNF547 expression fold change” value was 1.209 and the “ZNF554 expression fold change” value was 1.212. For the same compound, the “ZNF558 Mean fold change” value was 1.502, the “ZNF566 expression fold change” value was 1.349 and the “ZNF567 expression fold change” value was 1.133. The “ZNF592 expression fold change” value was 1.148, the “ZNF619 expression fold change” value was 1.402 and the “ZNF664 expression fold change” value was 1.294. The “ZNF669 expression fold change” value was 1.198, the “ZNF700 expression fold change” value was 1.242 and the “ZNF706 expression fold change” value was 1.373. For the same compound, the “ZNF746 expression fold change” value was 1.115, the “ZNF747 expression fold change” value was 1.143 and the “ZNF764 expression fold change” value was 1.241. For the same compound, the “ZNF770 Mean fold change” value was 1.508, the “ZNF780A expression fold change” value was 1.192 and the “ZNF780B expression fold change” value was 1.397. The “ZNF800 expression fold change” value was 1.234, the “ZRSR2 expression fold change” value was 1.249 and the “ZSCAN12 Mean fold change” value was 1.516. For the same compound, the “ZSCAN30 Mean fold change” value was 1.472, the “ZSWIM7 expression fold change” value was 1.339 and the “fold change in expression of gene APBB1” value was 0.456. The “fold change in expression of gene C19orf21” value was 0.393, the “fold change in expression of gene CACNG4” value was 0.431 and the “fold change in expression of gene CAV1” value was 0.418. The “fold change in expression of gene CDKN2AIP” value was 0.467, the “fold change in expression of gene CITED2” value was 0.434 and the “fold change in expression of gene COL9A3” value was 0.376. For the same compound, the “fold change in expression of gene CRISPLD2” value was 0.367, the “fold change in expression of gene CSDC2” value was 0.362 and the “fold change in expression of gene CTGF” value was 0.371. For the same compound, the “fold change in expression of gene CYR61” value was 0.369.
